The results in this text go back to ChEMBL document CHEMBL3621159, “Discovery of an orally active subtype-selective HDAC inhibitor, chidamide, as an epigenetic modulator for cancer treatment” (Medchemcomm, 2014).

Series [1] in a line: Cmax in patient at 32.5 mg, po administered as single dose. On the set-up: dose 32.5 mg, route oral. To be noted: human, in vivo. It counts as ADME, organism-based.
A short description of series [2]: AUC in patient at 32.5 mg, po administered as single dose. It counts as ADME, organism-based. The following applies: human, in vivo.
Series [3] in a line: Cytotoxicity against human hematopoietic malignant cells assessed as growth inhibition. It is filed as functional.
Series [4] in a line: Cytotoxicity against human solid tumor cells assessed as growth inhibition. It counts as functional.
The nature of series [5]: Half life in patient at 25 to 50 mg, administered as single dose. It counts as ADME, organism-based. The following applies: human, in vivo.

In turn, `Nc1cc(F)ccc1NC(=O)c1ccc(CNC(=O)/C=C/c2cccnc2)cc1` [TUCIDINOSTAT] yielded a Cmax in series [1] of 312 nM. In series [2], this molecule had an AUC of 2.24 µM·h. The concentration for 50% growth inhibition (GI50) was 1.86 µM in series [3] and 6.65 µM in series [4]. The half-life in series [5] was 24 h.
